According to patent US6855728B2, “Small-molecule modulators of hepatocyte growth factor / scatter factor activities” (North Shore-Long Island Jewish Health System, priority 2001, dated 2005):

Legend:
[1] = test system: HGF/SF induced proliferation of HUVEC; experiment: Endothelial cell (HUVEC) proliferation assay in the presence of exogenously-added HGF/SF; type: cell-based, human; conditions: with HGF/SF
Text: To evaluate inhibitors of activity, compounds may be evaluated directly for anti-proliferative activities, such as the inhibition of cellular proliferation, inhibition of tumor growth, inhibition of scatter, and inhibition of gene expression, and may also be evaluated on their ability to inhibit activity when exposed to cells together with. In such instances, the scatter and/or proliferative activities induced by added will be inhibited by the attendant presence of an inhibitory compound of the invention.
(§1) Cell proliferation assays Endothelial cells (HUVECs) were seeded in 48 well plates at a density of 10,000 to 20,000 cells per well in the normal growth medium (EGM-2-Clonetics) containing 2% fetal bovine serum, FGF, VEGF, IGF, ascorbic acid, EGF, GA, heparin and hydrocortisone. The cells were grown normally in the growth medium for 24 hr at 37 degrees C. and 5% CO2. The cells were then rinsed with RPMI-1% BSA and starved for 1-2 hrs. The stock solutions of all the compounds were made at a concentration of 10 mg/ml in DMSO and diluted in RPMI-1% BSA at a final concentrations of 1 to 12 microgram/ml. The cells were then washed and treated with the compounds and incubated for another 24 hr at 37 degrees C. Then ^3H thymidine (0.5 microgram/ml in RPMI-BSA) was added to the cells and incubated at 37 degrees C. for 4 to 5 hours. The unincorporated thymidine was removed by washing the cells four times with 1× PBS. Then the cells were lysed with 0.5M NaOH for 30 min and the radioactivity counted in the beta counter.

[2] = test system: Endothelial cells (HUVECs); experiment: Endothelial cell (HUVEC) proliferation assay, 3H thymidine incorporation, compound without added growth factor; type: cell-based, human; conditions: for activation at 10 µg/mL / activation at 5 µg/mL: 24 h; for Stimulation at 5 microg/ml / activation at 5 µg/mL / Stimulation/Inhibition at 5 microg/ml (result in words): 5 microg/ml
Method: as §1, with “counter. […]” for “counter.”

[3] = stimulation of endothelial cell proliferation
[4] = 10 microg/ml, stimulation of endothelial cell proliferation
[5] = Homo sapiens, HUVEC, 10 microg/ml, stimulation of endothelial cell proliferation
[6] = Homo sapiens, HUVEC, stimulation of endothelial cell proliferation

## CSC(=NS(=O)(=O)c1ccccc1)NNC(=O)c1c(-c2c(Cl)cccc2Cl)noc1C [N1-((2-((3-(2,6-dichlorophenyl)-5-methylisoxazol-4-yl)carbonyl)hydrazino)(methylthio)methylidene)benzene-1-sulfonamide]
[1]; 2 microgram/ml
  Activity at 2 microgram/ml With HGF/SF (result in words): No effect
[1]; Homo sapiens, 6 microgram/ml, inhibition of HUVEC proliferation, read-out: Activity at 6 microgram/ml With HGF/SF: inhibition (blocked SF)
  inhibition at 6 µg/mL: 25%
[2]; 2 microgram/ml, without HGF/SF
  Activity at 2 microgram/ml Without HGF/SF (result in words): No effect
[2]; 6 microgram/ml, without HGF/SF
  Activity at 6 microgram/ml Without HGF/SF (result in words): No effect

## Cc1nn(S(=O)(=O)c2ccccc2Cl)c(C)c1-c1csc2ccc(Cl)cc12 [4(5-chlorobenzo(b)thiophen-3-yl)-1-(2-chlorophenyl)sulfonyl)-3,5dimethyl-1-H-pyrazole]
[2]; [3]
  Stimulation at 5 microg/ml: 1.8 fold stimulation
[2]; 10 microg/ml
  Stimulation/Inhibition at 10 microg/ml (result in words): Not significant

## C(=C1c2ccccc2-c2ccccc2-c2ccccc21)c1ccc(-c2ccccc2)cc1 [9-biphenyl-4-ylmethylene-9H-tri-benzo(A,C,E)-cycloheptene]
[1]; 6-12 micrograms/ml, stimulation of endothelial cell proliferation
  Stimulation at 6-12 micrograms/ml With: 20-30% stimulation
[2]; 6-12 micrograms/ml, without HGF/SF, stimulation of endothelial cell proliferation
  Stimulation at 6-12 micrograms/ml Without HGF/SF: 30-40% stimulation

## CNC(=O)n1nc(C)c(Cc2csc3ccc(Cl)cc23)c1C [4-[(5-chloro-1-benzothiophen-3-yl)methyl]-N,3,5-trimethyl-1H-pyrazole-1-carboxamide]
[2]; [3]
  Stimulation at 5 microg/ml: two fold stimulation
[2]; [4]
  Stimulation at 10 microg/ml: two fold stimulation

## CCc1c[nH]nc1-c1c(F)cccc1F [3-(2,6-difluorophenyl)-4-ethyl-1H-pyrazole]
[2]; [3]
  Stimulation at 5 microg/ml: two fold stimulation
[2]; [5]
  activation at 10 µg/mL: 86%

## O=C(c1ccc(Cl)cc1)n1ccc(-c2ccc(-c3cccs3)s2)n1 [(4-chlorophenyl)(3-(5-(2-thienyl)-2-thienyl)-1H-pyrazol-1-yl)methanone]
[2]; [6]
  activation at 5 µg/mL: 40%
[2]; [5]
  activation at 10 µg/mL: 40%

## Cc1nn(C(=O)Nc2ccccc2)c(C)c1Cc1csc2ccc(Cl)cc12 [N1-phenyl-4-[(5-chlorobenzo[b]thiophen-3-yl)methyl]-3,5-dimethyl-1H-pyrazole-1-carboxamide]
[2]; [3]
  Stimulation at 5 microg/ml: two fold stimulation
[2]; [5]
  activation at 10 µg/mL: 45%

## O=C(Nc1ccccc1)n1ccc(C=Cc2cccs2)n1 [N1-phenyl-3-(2-(2-thienyl)vinyl)-1H-pyrazole-1-carboxamide]
[2]; 10 microg/ml
  Stimulation/Inhibition at 10 microg/ml (result in words): Not significant
[2]; [6]
  activation at 5 µg/mL: 40%

## O=C(c1ccc(Cl)cc1)n1ccc(C(c2ccccc2)c2ccccc2)n1 [(3-benzhydryl-1H-pyrazol-1-yl)(4-chlorophenyl)methanone]
[2]
  Stimulation/Inhibition at 5 microg/ml (result in words): No effect
[2]; [5]
  activation at 10 µg/mL: 25%

## O=C(Nc1ccc(Cl)cc1)n1ccc(C=Cc2cccs2)n1 [N1-(4-chlorophenyl)-3-(2-(2-thienyl)vinyl)-1H-pyrazole-1-carboxamide]
[2]
  Stimulation/Inhibition at 5 microg/ml (result in words): No effect
[2]; [5]
  activation at 10 µg/mL: 55%

## CSc1cc(-c2ccc(Oc3ccccc3)cc2)nn1C(=O)c1ccc(Cl)cc1 [(4-chlorophenyl)(5-(methylthio)-3-(4-phenoxyphenyl)-1H-pyrazol-1-yl)methanone]
[2]
  Stimulation/Inhibition at 5 microg/ml (result in words): No effect
[2]; Homo sapiens, HUVEC, 10 microg/ml, inhibition of endothelial cell proliferation
  inhibition at 10 µg/mL: 40%

## CCc1cn(C(=O)C(C)(C)C)nc1-c1c(F)cccc1F [1-[3-(2,6-difluorophenyl)-4-ethyl-1H-pyrazol-1-yl]-2,2-dimethylpropan-1-one]
[2]; 10 microg/ml
  Stimulation/Inhibition at 10 microg/ml (result in words): not significant
[2]; [6]
  activation at 5 µg/mL: 58%

## Cc1nn(C(=O)c2ccc(Cl)cc2)c(C)c1Sc1nccn1C [(4-chlorophenyl)(3,5-dimethyl-4-((1-methyl-1H-imidazol-2-yl)thio)-1H-pyrazol-1-yl)methanone]
[2]; [6]
  activation at 5 µg/mL: 52%
[2]; [5]
  activation at 10 µg/mL: 50%

## COC(=O)c1c(C)nn(C(=O)c2ccc(Cl)cc2)c1-c1ccno1 [methyl 1-(4-chlorobenzoyl)-5-isoxazol-5-yl-3-methyl-1H-pyrazole-4-carboxylate]
[2]
  Stimulation/Inhibition at 5 microg/ml (result in words): Not significant
[2]; [5]
  activation at 10 µg/mL: 33%

## CC(C)(C)C(=O)n1ccc(C=Cc2cccs2)n1 [2,2-dimethyl-1-(3-(2-(2-thienyl)vinyl)-1H-pyrazole-1-yl)propan-1-one]
[2]
  Stimulation/Inhibition at 5 microg/ml (result in words): No effect
[2]; [5]
  activation at 10 µg/mL: 55%

## O=C(c1ccc(Cl)cc1)n1ccc(-c2cc(-c3ccccc3)no2)n1 [(4-chlorophenyl)(3-(3-phenylisoxazol-5-yl)-1H-pyrazol-1-yl)methanone]
[2]; [6]
  activation at 5 µg/mL: 54%
[2]; [5]
  activation at 10 µg/mL: 60%

## Cc1nn(C(=O)Nc2ccc(Cl)cc2Cl)c(C)c1Cc1csc2ccc(Cl)cc12 [4-[(5-chloro-1-benzothiophen-3-yl)methyl]-N-(2,4-dichlorophenyl)-3,5-dimethyl-1H-pyrazole-1-carboxamide]
[2]; [6]
  activation at 5 µg/mL: 75%
[2]; [5]
  activation at 10 µg/mL: 35%

## Cc1nn(C(=O)Nc2cccc(Cl)c2)c(C)c1Cc1csc2ccc(Cl)cc12 [N1-(3-chlorophenyl)-4-[(5-chlorobenzo[b]thiophen-3-yl)methyl]-3,5-dimethyl-1H-pyrazole-1-carboxamide]
[2]; [6]
  activation at 5 µg/mL: 86%
[2]; [5]
  activation at 10 µg/mL: 40%

## CCc1cn(C(=O)c2cccs2)nc1-c1c(F)cccc1F [[3-(2,6-difluorophenyl)-4-ethyl-1H-pyrazol-1-yl](2-thienyl)methanone]
[2]; [3]
  Stimulation at 5 microg/ml: 2.5 fold stimulation
[2]; [4]
  Stimulation at 10 microg/ml: two fold stimulation

## CNC(=O)n1ccc(C=Cc2cccs2)n1 [N-methyl-3-(2-(2-thienyl)vinyl)-1H-pyrazole-1-carboxamide]
[2]; [6]
  activation at 5 µg/mL: 70%
[2]; [5]
  activation at 10 µg/mL: 42%

## CS(=O)(=O)n1ccc(C=Cc2cccs2)n1 [1-(methylsulfonyl)-3-(2-(2-thienyl)vinyl)-1H-pyrazole]
[2]; 10 microg/ml
  Stimulation/Inhibition at 10 microg/ml (result in words): Not significant
[2]; [6]
  activation at 5 µg/mL: 74%

## Cc1onc(-c2c(Cl)cccc2Cl)c1C(=O)NN [3-(2,6-dichlorophenyl)-5-methylisoxazole-4-carbohydrazide]
[2]; 2 microgram/ml, without HGF/SF
  Activity at 2 microgram/ml Without HGF/SF (result in words): not significant

## Cc1nn(C(=O)c2ccc([N+](=O)[O-])cc2)c(C)c1Cc1csc2ccc(Cl)cc12 [{4-[(5-chlorobenzo[b]thiophen-3-yl)methyl]-3,5-dimethyl-1H-pyrazol-1-yl}(4-nitrophenyl)methanone]
[2]; [4]
  Stimulation at 10 microg/ml: 2.5 fold stimulation
[2]; [6]
  activation at 5 µg/mL: 74%

## Cc1nc(-c2ccc(-c3cccs3)s2)sc1-c1ccn(C(=O)c2ccc(Cl)cc2)n1 [(4-chlorophenyl)(3-(2-(5-(2-thienyl)-2-thienyl)-4-methyl-1,3-thiazol-5-yl)-1H-pyrazol-1-yl)methanone]
[2]; [6]
  activation at 5 µg/mL: 20%
[2]; [5]
  activation at 10 µg/mL: 33%

## Cc1nn(-c2ccccc2)c(O)c1Cc1c(Cl)cccc1Cl [4-(2,6-dichlorobenzyl)-3-methyl-1-phenyl-1H-pyrazol-5-ol]
[2]; [3]
  Stimulation at 5 microg/ml: 2.3 fold stimulation
[2]; [4]
  Stimulation at 10 microg/ml: two fold stimulation

## C=C(C)Cc1c(C)nn(S(=O)(=O)c2ccccc2)c1O [3-methyl-4-(2-methylallyl)-1-(phenylsulfonyl)-1H-pyrazol-5-ol]
[2]; [3]
  Stimulation at 5 microg/ml: two fold stimulation
[2]; 10 microg/ml
  Stimulation/Inhibition at 10 microg/ml (result in words): Not significant

## Cc1nn(S(=O)(=O)c2ccc(Cl)c(Cl)c2)c(C)c1Cc1c(F)cccc1Cl [4-(2-chloro-6-fluorobenzyl)-1-((3,4-dichlorophenyl)sulfonyl)-3,5-dimethyl-1H-pyrazole]
[2]; 2 microgram/ml, without HGF/SF, stimulation of HUVEC proliferation
  Activity at 2 microgram/ml Without HGF/SF: stimulation: 73%

## Cc1nn(S(=O)(=O)c2cc(C(F)(F)F)cc(C(F)(F)F)c2)c(C)c1Cc1c(F)cccc1Cl [4-(2-chloro-6-fluorobenzyl)-1-{[3,5-di(trifluoromethyl)phenyl]sulfonyl}-3,5-dimethyl-1H-pyrarole]
[2]; [3]
  Stimulation at 5 microg/ml: 3.1 fold stimulation
[2]; [4]
  Stimulation at 10 microg/ml: 2.4 fold stimulation

## N#Cc1c(Cl)cccc1Oc1ccc(-c2ccnn2Cc2ccc(Cl)cc2)cc1 [2-chloro-6-(4-(1-(4-chlorobenzyl)-1H-pyrazol-5-yl)phenoxy)benzonitrile]
[2]; [6]
  activation at 5 µg/mL: 60%
[2]; [5]
  activation at 10 µg/mL: 90%
